Results on 17 molecules are retold here after PubChem BioAssay AID256 (DTP/NCI, 2004).

For this assay, the system named is CD2F1 mice, L1210 leukemia ip, survival T/C. Nature of the assay: NCI In Vivo Anticancer Drug Screen. Data for tumor model L1210 Leukemia (intraperitoneal) in CD2F1 (CDF1) mice. The settings on record: higher = longer survival. An outline of the steps:
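Antitumor effect is scored in animals hosting a serially transplanted tumor. Values compare compound-dosed animals against vehicle-only controls as a simple quotient.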

Setting [1] is: endpoint: mean survival time, dose: 100.0 mg/kg/injection, schedule: Q01DX009 (ip), vehicle: saline with Tween-80.
The mark [2] stands for this setting: endpoint: mean survival time, dose: 200.0 mg/kg/injection, schedule: Q01DX009 (ip), vehicle: saline with Tween-80.
The mark [3] stands for this setting: endpoint: mean survival time, dose: 400.0 mg/kg/injection, schedule: Q01DX009 (ip), vehicle: saline with Tween-80.
Where [4] appears, read: endpoint: mean survival time, dose: 50.0 mg/kg/injection, schedule: Q01DX009 (ip), vehicle: saline with Tween-80.
Where [5] appears, read: endpoint: mean survival time, dose: 100.0 mg/kg/injection, schedule: Q04DX003 (ip), vehicle: saline with Tween-80.
Setting [6] is: endpoint: mean survival time, dose: 200.0 mg/kg/injection, schedule: Q04DX003 (ip), vehicle: saline with Tween-80.
Where [7] appears, read: endpoint: mean survival time, dose: 400.0 mg/kg/injection, schedule: Q04DX003 (ip), vehicle: saline with Tween-80.
Setting [8] is: endpoint: mean survival time, dose: 100.0 mg/kg/injection, schedule: Q01DX001 (ip), vehicle: saline with Tween-80.
The mark [9] stands for this setting: endpoint: mean survival time, dose: 200.0 mg/kg/injection, schedule: Q01DX001 (ip), vehicle: saline with Tween-80.

Values joined by “and” are separate entries in the source; they are usually repeats but may differ in a detail not shown here. Equal values may be shown once. Inconclusive results and toxic doses are left out.

Consider `CN(C)N=Nc1ccc(N=Nc2ccc(N(CCO)CCO)cc2)cc1`, for which the T/C is 102 % of control (endpoint: mean survival time, dose: 100.0 mg/kg/injection, schedule: Q01DX001 (ip), vehicle: saline); 93 % of control (endpoint: mean survival time, dose: 200.0 mg/kg/injection, schedule: Q01DX001 (ip), vehicle: saline); 101 % of control (endpoint: mean survival time, dose: 400.0 mg/kg/injection, schedule: Q01DX001 (ip), vehicle: saline).
As for `O=C1CCC(=O)ON=c2ccc(cc2)=NO1`, the T/C is 98 % of control (endpoint: mean survival time, dose: 50.0 mg/kg/injection, schedule: Q01DX009 (ip), vehicle: saline); 102 % of control (endpoint: mean survival time, dose: 100.0 mg/kg/injection, schedule: Q01DX009 (ip), vehicle: saline); 90 % of control (endpoint: mean survival time, dose: 200.0 mg/kg/injection, schedule: Q01DX009 (ip), vehicle: saline).
Take `C(=Nc1ccccc1)c1ccc(-c2ccccc2)cc1`: the T/C reads like this: under setting [1], 95 % of control; (endpoint: mean survival time, dose: 100.0 mg/kg/injection, schedule: Q04DX003 (ip), vehicle: saline sonified) 97 % of control; under setting [2], 98 % of control; (endpoint: mean survival time, dose: 200.0 mg/kg/injection, schedule: Q04DX003 (ip), vehicle: saline sonified) 101 % of control; under setting [3], 108 % of control; (endpoint: mean survival time, dose: 400.0 mg/kg/injection, schedule: Q04DX003 (ip), vehicle: saline sonified) 94 % of control.
In the case of `CS(=O)(=O)Nc1ccc2c(c1)C(=O)c1ccccc1C2=O`, the T/C reads like this: under setting [4], 101 % of control; under setting [1], 101 % of control; under setting [2], 97 % of control.
In the case of `CCOC(=O)N1C2CC(C3C2N3S(=O)(=O)c2ccccc2)N1C(=O)OCC` (centres undefined), the T/C is 104 % of control under setting [5], 103 % of control under setting [6] and 90 % of control under setting [7].
With `CC(=O)Nc1ccn(C2OC(CO)C(O)C2O)c(=O)n1` (centres undefined), the T/C is, setting by setting: (endpoint: mean survival time, dose: 12.5 mg/kg/injection, schedule: Q03HX024 (ip), vehicle: saline) 196 % of control; (endpoint: mean survival time, dose: 25.0 mg/kg/injection, schedule: Q03HX024 (ip), vehicle: saline) 274 % of control; (endpoint: mean survival time, dose: 37.5 mg/kg/injection, schedule: Q01DX008 (ip), vehicle: saline) 150 % of control; (endpoint: mean survival time, dose: 50.0 mg/kg/injection, schedule: Q03HX024 (ip), vehicle: saline) 257 % of control; (endpoint: mean survival time, dose: 50.0 mg/kg/injection, schedule: Q04DX003 (ip), vehicle: saline) 113 % of control; (endpoint: mean survival time, dose: 75.0 mg/kg/injection, schedule: Q01DX008 (ip), vehicle: saline) 160 % of control. The T/C (endpoint: mean survival time, dose: 100.0 mg/kg/injection, schedule: Q04DX003 (ip), vehicle: saline) is 117 % of control; the T/C (endpoint: mean survival time, dose: 150.0 mg/kg/injection, schedule: Q01DX001 (ip), vehicle: saline) was 106 % of control; the T/C (endpoint: mean survival time, dose: 150.0 mg/kg/injection, schedule: Q01DX008 (ip), vehicle: saline) is 174 % of control; the T/C (endpoint: mean survival time, dose: 300.0 mg/kg/injection, schedule: Q01DX001 (ip), vehicle: saline) is 107 % of control; the T/C (endpoint: mean survival time, dose: 600.0 mg/kg/injection, schedule: Q01DX001 (ip), vehicle: saline) is 107 % of control; the T/C (endpoint: mean survival time, dose: 1200.0 mg/kg/injection, schedule: Q01DX001 (ip), vehicle: saline) was 104 % of control.
Consider `O=C1C(c2ccccc2)=C(c2ccccc2)CC1O` (centres undefined), for which the T/C by setting is: under setting [5], 103 % of control; under setting [6], 91 % of control; under setting [7], 103 % of control.
On to `CCOC12c3c4cccc3Oc3cccc(c31)S(=O)(=O)c1cccc(c12)O4`, for which the T/C is, setting by setting: under setting [8], 89 % of control; under setting [9], 89 % of control.
Regarding `COc1ccc(/C=C2/CCOC2=O)cc1`, the T/C reads like this: (endpoint: mean survival time, dose: 3.12 mg/kg/injection, schedule: Q01DX001 (ip), vehicle: Klucel (hydroxypropylcellulose) (HPC)) 104 % of control; (endpoint: mean survival time, dose: 3.12 mg/kg/injection, schedule: Q04DX002 (ip), vehicle: Klucel (hydroxypropylcellulose) (HPC)) 103 % of control; (endpoint: mean survival time, dose: 6.25 mg/kg/injection, schedule: Q01DX001 (ip), vehicle: Klucel (hydroxypropylcellulose) (HPC)) 102 % of control; (endpoint: mean survival time, dose: 6.25 mg/kg/injection, schedule: Q04DX002 (ip), vehicle: Klucel (hydroxypropylcellulose) (HPC)) 100 % of control; (endpoint: mean survival time, dose: 12.5 mg/kg/injection, schedule: Q01DX001 (ip), vehicle: Klucel (hydroxypropylcellulose) (HPC)) 116 % of control; (endpoint: mean survival time, dose: 12.5 mg/kg/injection, schedule: Q04DX002 (ip), vehicle: Klucel (hydroxypropylcellulose) (HPC)) 107 % of control.
With `O=C(N/N=C\c1ccc(F)cc1)N/N=C/c1ccc(F)cc1`, the T/C by setting is: (endpoint: mean survival time, dose: 12.5 mg/kg/injection, schedule: Q01DX009 (ip), vehicle: saline with Tween-80) 93 % of control; (endpoint: mean survival time, dose: 25.0 mg/kg/injection, schedule: Q01DX009 (ip), vehicle: saline with Tween-80) 91 % of control; under setting [4], 91 % of control; under setting [2], 90 % of control; under setting [3], 90 % of control.
On to `CC(=O)OC1(C)CC(C)C(=O)C(C(O)CC2CC(=O)NC(=O)C2)C1` (centres undefined), for which the T/C is 103 % of control (endpoint: mean survival time, dose: 0.03 mg/kg/injection, schedule: Q01DX009 (ip), vehicle: saline); 94 % of control (endpoint: mean survival time, dose: 0.04 mg/kg/injection, schedule: Q01DX009 (ip), vehicle: saline); 105 % of control and 107 % of control (endpoint: mean survival time, dose: 0.06 mg/kg/injection, schedule: Q01DX009 (ip), vehicle: saline); 114 % of control (endpoint: mean survival time, dose: 0.13 mg/kg/injection, schedule: Q01DX009 (ip), vehicle: saline).
`CCC(c1ccc2cc(OC)ccc2c1)C(CC(=O)O)C(=O)OC` (centres undefined): the T/C (endpoint: mean survival time, dose: 100.0 mg/kg/injection, schedule: Q01DX009 (ip), vehicle: Klucel (hydroxypropylcellulose) (HPC)) is 98 % of control; the T/C (endpoint: mean survival time, dose: 200.0 mg/kg/injection, schedule: Q01DX009 (ip), vehicle: Klucel (hydroxypropylcellulose) (HPC)) is 98 % of control; the T/C (endpoint: mean survival time, dose: 400.0 mg/kg/injection, schedule: Q01DX009 (ip), vehicle: Klucel (hydroxypropylcellulose) (HPC)) is 100 % of control.
Take `O[Si](O)([O][Sn]([c]1ccccc1)([c]1ccccc1)[c]1ccccc1)[O][Sn]([c]1ccccc1)([c]1ccccc1)[c]1ccccc1`: the T/C is 94 % of control (endpoint: mean survival time, dose: 0.39 mg/kg/injection, schedule: Q01DX009 (ip), vehicle: saline); 94 % of control (endpoint: mean survival time, dose: 0.78 mg/kg/injection, schedule: Q01DX009 (ip), vehicle: saline); 105 % of control (endpoint: mean survival time, dose: 1.56 mg/kg/injection, schedule: Q01DX009 (ip), vehicle: saline); 106 % of control (endpoint: mean survival time, dose: 6.25 mg/kg/injection, schedule: Q01DX009 (ip), vehicle: saline); 100 % of control (endpoint: mean survival time, dose: 12.5 mg/kg/injection, schedule: Q01DX009 (ip), vehicle: saline).
For the molecule `CCOC(=O)C(=CCBr)C(=O)OCC`, the T/C (endpoint: mean survival time, dose: 1.56 mg/kg/injection, schedule: Q01DX009 (ip), vehicle: other) was 100 % of control; the T/C (endpoint: mean survival time, dose: 3.13 mg/kg/injection, schedule: Q01DX009 (ip), vehicle: other) was 100 % of control; the T/C (endpoint: mean survival time, dose: 6.25 mg/kg/injection, schedule: Q01DX009 (ip), vehicle: other) was 107 % of control; the T/C (endpoint: mean survival time, dose: 12.5 mg/kg/injection, schedule: Q01DX009 (ip), vehicle: other) is 100 % of control; the T/C (endpoint: mean survival time, dose: 25.0 mg/kg/injection, schedule: Q01DX009 (ip), vehicle: other) is 102 % of control.
On to `C1CCC(C2CCCC[N-]2)[N-]C1.CC(C)C([NH-])C(=O)O.[Cl][Pt]` (centres undefined), for which the T/C was 101 % of control (endpoint: median survival time, dose: 10.0 mg/kg/injection, schedule: Q04DX003 (ip), vehicle: saline); 102 % of control (endpoint: median survival time, dose: 20.0 mg/kg/injection, schedule: Q04DX003 (ip), vehicle: saline); 100 % of control (endpoint: median survival time, dose: 40.0 mg/kg/injection, schedule: Q04DX003 (ip), vehicle: saline); 94 % of control and 96 % of control (endpoint: median survival time, dose: 80.0 mg/kg/injection, schedule: Q04DX003 (ip), vehicle: saline); 97 % of control (endpoint: median survival time, dose: 160.0 mg/kg/injection, schedule: Q04DX003 (ip), vehicle: saline).
`[N-]=[N+]=c1c(=O)c2ccccc2c1=O`: the T/C was 96 % of control under setting [8]; 94 % of control under setting [9]; 104 % of control (endpoint: mean survival time, dose: 400.0 mg/kg/injection, schedule: Q01DX001 (ip), vehicle: saline with Tween-80).
Regarding `CC1OC(c2ccccc2)OC1C` (centres undefined), the T/C reads like this: under setting [5], 94 % of control; under setting [6], 92 % of control; under setting [7], 90 % of control.
